Reference: patent publication US6623769B1, “Administration of lycopene for combating skin/mucous membrane damage” (Societe L'Oreal S.A., priority 1999, dated 2003)

Tested on: promoter of the gene for collagenase 1
Test: Inhibition of PMA-induced activity of the collagenase 1 promoter (CAT reporter, CAT-Elisa) in transfected HeLa cells
Format: cell-based
Settings: conclusion in words from the Table, PMA induction
Protocol: The activity of a lycopene-rich tomato extract (LycOMato® marketed by Metaphar) was studied on HeLa cells transfected with an expression vector encoding a portion of the promoter of collagenase cloned upstream of the gene for chloramphenicol acetyltransferase (CAT).
The study made it possible to evaluate the effectiveness of a product in inhibiting the induction of the transcription of the gene for collagenase by phorbol 12-myristate 13-acetate (PMA).
The test was carried out on HeLa cells (ATCC CCL2), into which had been introduced the promoter of the gene for collagenase 1 (3.8 kB) cloned upstream of the gene for chloramphenicol acetyltransferase (CAT).
The cells were exposed to PMA at a concentration of 10 nM for 24 hours.
Before administration of PMA, the cells were contacted for 2 hours with lycopene (LycOMato® marketed by Metaphar) at concentrations varying from 10^−7% to 10^−4%, representing lycopene concentrations ranging from 6×10^−9% to 6×10^−6%.
Assaying of the CAT was carried out using a “CAT-Elisa” kit marketed by Boehringer, according to the supplier's instructions.
A “base level” for the expression of the CAT was measured in cells which had neither received PMA nor were treated with the test product.
The results of the test, reported in the following Table, are expressed with respect to the base level (100%) as percentage of inhibition of the expression of the CAT gene.

With CC(C)=CCC/C(C)=C/C=C/C(C)=C/C=C/C(C)=C/C=C/C=C(C)/C=C/C=C(C)/C=C/C=C(\C)CCC=C(C)C [lycopene] the “effect on the synthesis of collagenase 1 by inhibition of the activity of its promoter” value was “inhibitory effect”.
